Structures are written as SMILES. Values after ≈ are worked out from the molar mass of the structure shown.

Format in all cases: functional
The subject of one assay is Rhizopus arrhizus. The experiment in a line: Antifungal activity against Rhizopus oryzae MTCC 262 after 24 hr by paper disk method. The conditions noted are these: MTCC 262, 24 h.
A further assay relates to Escherichia coli. The experiment in a line: Antibacterial activity against Escherichia coli NCIM 2068 after 18 to 20 hr by plate method.
Another assay has as its system Bacillus subtilis. Briefly: Antibacterial activity against Bacillus subtilis NCIM 2921 after 18 to 20 hr by plate method.
For another assay, the system named is Staphylococcus aureus. Briefly: Antibacterial activity against Staphylococcus aureus NCIM 2079 after 18 to 20 hr by plate method.
The subject of a further assay is Candida albicans. The experiment in a line: Antifungal activity against Candida albicans MTCC 227 after 24 hr by paper disk method. Particulars: MTCC 227, 24 h.
The subject of a further assay is Saccharomyces cerevisiae. Briefly: Antifungal activity against Saccharomyces cerevisiae MTCC 36 after 24 hr by paper disk method. Particulars: MTCC 36, 24 h.
For another assay, the system named is Pseudomonas aeruginosa. The experiment in a line: Antibacterial activity against Pseudomonas aeruginosa NCIM 2957 after 18 to 20 hr by plate method.
For the next assay, the system named is Aspergillus niger. Briefly: Antifungal activity against Aspergillus niger MTCC 1344 after 24 hr by paper disk method. Particulars: MTCC 1344, 24 h.

In general, MIC refers to the lowest concentration that inhibits growth of the organism. Low values mean greater potency, high ones weaker potency. As for `CCOC(=O)Cn1c(C(F)(F)C(F)(F)F)nc2cc(C(=O)c3ccccc3)ccc21`, the MIC was 800 µg/mL (≈ 1880 µM) against Rhizopus arrhizus; 650 µg/mL (≈ 1520 µM) against Escherichia coli; 900 µg/mL (≈ 2110 µM) with Bacillus subtilis; 700 µg/mL (≈ 1640 µM) against Staphylococcus aureus; 700 µg/mL (≈ 1640 µM) against Candida albicans; 800 µg/mL (≈ 1880 µM) in the assay with Saccharomyces cerevisiae. Also, the MIC was 700 µg/mL (≈ 1640 µM) with Pseudomonas aeruginosa and 1000 µg/mL (≈ 2350 µM) in the assay on Aspergillus niger. Further, the Activity entry in the assay with Escherichia coli, in the assay on Bacillus subtilis, in the assay with Staphylococcus aureus and in the assay with Pseudomonas aeruginosa was “Dose-dependent effect” in each case.
`O=[N+]([O-])c1ccc2c(c1)nc(C(F)(F)F)n2CCCCl`: the MIC was determined as 200 µg/mL (≈ 650 µM) in the assay on Rhizopus arrhizus; 200 µg/mL (≈ 650 µM) in the assay on Escherichia coli; 350 µg/mL (≈ 1140 µM) in the assay on Bacillus subtilis; 300 µg/mL (≈ 975 µM) with Staphylococcus aureus; 300 µg/mL (≈ 975 µM) against Candida albicans; 400 µg/mL (≈ 1300 µM) in the assay with Saccharomyces cerevisiae. Further, the results for the MIC in the assay on Pseudomonas aeruginosa and against Aspergillus niger were 400 µg/mL (≈ 1300 µM) and 300 µg/mL (≈ 975 µM), respectively. Also, the Activity entry with Escherichia coli, in the assay with Bacillus subtilis, with Staphylococcus aureus and in the assay on Pseudomonas aeruginosa was “Dose-dependent effect” throughout.
As to `CCOC(=O)Cn1c(C(F)(F)F)nc2cc([N+](=O)[O-])ccc21`, the MIC stood at 600 µg/mL (≈ 1890 µM) in the assay with Rhizopus arrhizus; 700 µg/mL (≈ 2210 µM) against Escherichia coli; 800 µg/mL (≈ 2520 µM) against Bacillus subtilis; 800 µg/mL (≈ 2520 µM) in the assay with Staphylococcus aureus; 400 µg/mL (≈ 1260 µM) in the assay with Candida albicans; 600 µg/mL (≈ 1890 µM) in the assay on Saccharomyces cerevisiae. Also, the MIC is 900 µg/mL (≈ 2840 µM) in the assay with Pseudomonas aeruginosa and 550 µg/mL (≈ 1730 µM) in the assay with Aspergillus niger. The Activity entry with Escherichia coli, with Bacillus subtilis, in the assay on Staphylococcus aureus and in the assay on Pseudomonas aeruginosa was “Dose-dependent effect” each time.
For the compound `CCOC(=O)Cn1c(C(F)(F)F)nc2ccc(C(=O)c3ccccc3)cc21`, the MIC against Rhizopus arrhizus amounted to 400 µg/mL (≈ 1060 µM); in the assay with Candida albicans, 400 µg/mL (≈ 1060 µM); in the assay on Saccharomyces cerevisiae, 500 µg/mL (≈ 1330 µM); against Aspergillus niger it was 700 µg/mL (≈ 1860 µM).
In the case of `O=[N+]([O-])c1ccc2nc(C(F)(F)F)n(CCCCl)c2c1`, the MIC in the assay on Rhizopus arrhizus turned out to be 300 µg/mL (≈ 975 µM); against Escherichia coli, 400 µg/mL (≈ 1300 µM); with Bacillus subtilis, 300 µg/mL (≈ 975 µM); in the assay with Staphylococcus aureus, 350 µg/mL (≈ 1140 µM); against Candida albicans, 400 µg/mL (≈ 1300 µM); in the assay with Saccharomyces cerevisiae, 500 µg/mL (≈ 1630 µM). For the same compound, the MIC is 450 µg/mL (≈ 1460 µM) with Pseudomonas aeruginosa and 350 µg/mL (≈ 1140 µM) in the assay with Aspergillus niger. Also, the Activity entry in the assay on Escherichia coli, in the assay on Bacillus subtilis, in the assay with Staphylococcus aureus and in the assay on Pseudomonas aeruginosa was “Dose-dependent effect” in each case.
Regarding `CCOC(=O)Cn1c(C(F)(F)F)nc2ccc([N+](=O)[O-])cc21`, the MIC in the assay with Rhizopus arrhizus amounted to 700 µg/mL (≈ 2210 µM); against Escherichia coli it was 800 µg/mL (≈ 2520 µM); in the assay with Bacillus subtilis, 950 µg/mL (≈ 2990 µM); against Staphylococcus aureus, 900 µg/mL (≈ 2840 µM); with Candida albicans it was 450 µg/mL (≈ 1420 µM); with Saccharomyces cerevisiae it was 600 µg/mL (≈ 1890 µM). The MIC in the assay with Pseudomonas aeruginosa came out at 850 µg/mL (≈ 2680 µM); in the assay on Aspergillus niger, 500 µg/mL (≈ 1580 µM). For the same compound, the Activity entry with Escherichia coli, with Bacillus subtilis, with Staphylococcus aureus and in the assay on Pseudomonas aeruginosa was “Dose-dependent effect” in each case.
Take `CCOC(=O)Cn1c(C(F)(F)C(F)(F)F)nc2ccc(C(=O)c3ccccc3)cc21`: the MIC worked out at 850 µg/mL (≈ 1990 µM) with Rhizopus arrhizus; 600 µg/mL (≈ 1410 µM) in the assay on Escherichia coli; 850 µg/mL (≈ 1990 µM) with Bacillus subtilis; 900 µg/mL (≈ 2110 µM) in the assay with Staphylococcus aureus; 700 µg/mL (≈ 1640 µM) against Candida albicans; 700 µg/mL (≈ 1640 µM) against Saccharomyces cerevisiae. The MIC in the assay with Pseudomonas aeruginosa and against Aspergillus niger was 900 µg/mL (≈ 2110 µM) throughout. In addition, the Activity result in the assay on Escherichia coli, in the assay with Bacillus subtilis, in the assay with Staphylococcus aureus and in the assay with Pseudomonas aeruginosa was “Dose-dependent effect” throughout.
As to `O=[N+]([O-])c1ccc2nc(C(F)(F)F)n(CCCCCl)c2c1`, the MIC against Rhizopus arrhizus was 400 µg/mL (≈ 1240 µM); with Bacillus subtilis, 700 µg/mL (≈ 2180 µM); against Staphylococcus aureus, 800 µg/mL (≈ 2490 µM); in the assay on Candida albicans, 600 µg/mL (≈ 1870 µM); against Saccharomyces cerevisiae, 700 µg/mL (≈ 2180 µM); in the assay on Aspergillus niger, 650 µg/mL (≈ 2020 µM). Moreover, the Activity result in the assay on Escherichia coli, in the assay on Bacillus subtilis, in the assay with Staphylococcus aureus and in the assay with Pseudomonas aeruginosa was “Dose-dependent effect” each time.
On to `C#CCn1c(C(F)(F)F)nc2cc([N+](=O)[O-])ccc21`, for which the MIC against Rhizopus arrhizus was 700 µg/mL (≈ 2600 µM); in the assay with Candida albicans, 700 µg/mL (≈ 2600 µM); in the assay on Saccharomyces cerevisiae, 750 µg/mL (≈ 2790 µM); in the assay on Aspergillus niger, 600 µg/mL (≈ 2230 µM).
As to `CCn1c(C(F)(F)F)nc2ccc([N+](=O)[O-])cc21`, the MIC worked out at 850 µg/mL (≈ 3280 µM) with Rhizopus arrhizus, 900 µg/mL (≈ 3470 µM) with Candida albicans, 800 µg/mL (≈ 3090 µM) against Saccharomyces cerevisiae and 800 µg/mL (≈ 3090 µM) with Aspergillus niger.
Regarding `C#CCn1c(C(F)(F)F)nc2ccc([N+](=O)[O-])cc21`, the MIC with Rhizopus arrhizus worked out at 700 µg/mL (≈ 2600 µM); in the assay on Candida albicans, 600 µg/mL (≈ 2230 µM); against Saccharomyces cerevisiae it was 700 µg/mL (≈ 2600 µM); in the assay on Aspergillus niger, 650 µg/mL (≈ 2410 µM).
With `N#CCn1c(C(F)(F)F)nc2ccc([N+](=O)[O-])cc21`, the minimum inhibitory concentration (MIC) against Rhizopus arrhizus amounted to 800 µg/mL (≈ 2960 µM); against Saccharomyces cerevisiae it was 900 µg/mL (≈ 3330 µM).
As to `CCOC(=O)Cn1c(C(F)(F)F)nc2cc(C(=O)c3ccccc3)ccc21`, the minimum inhibitory concentration (MIC) in the assay on Rhizopus arrhizus is 450 µg/mL (≈ 1200 µM); in the assay with Candida albicans, 500 µg/mL (≈ 1330 µM); with Saccharomyces cerevisiae, 600 µg/mL (≈ 1590 µM); in the assay on Aspergillus niger, 800 µg/mL (≈ 2130 µM).
With `CCOC(=O)Cn1c(C(F)(F)C(F)(F)F)nc2cc([N+](=O)[O-])ccc21`, the MIC against Rhizopus arrhizus came to 950 µg/mL (≈ 2590 µM); against Escherichia coli it was 900 µg/mL (≈ 2450 µM); against Candida albicans it was 800 µg/mL (≈ 2180 µM); in the assay with Saccharomyces cerevisiae, 900 µg/mL (≈ 2450 µM); in the assay with Pseudomonas aeruginosa, 800 µg/mL (≈ 2180 µM); in the assay with Aspergillus niger it was 850 µg/mL (≈ 2310 µM). Moreover, the Activity entry in the assay with Escherichia coli, in the assay with Bacillus subtilis, in the assay on Staphylococcus aureus and in the assay on Pseudomonas aeruginosa was “Dose-dependent effect” throughout.
Consider `O=[N+]([O-])c1ccc2c(c1)nc(C(F)(F)C(F)(F)F)n2CCCCCl`, for which the MIC against Rhizopus arrhizus was 700 µg/mL (≈ 1880 µM); against Candida albicans, 700 µg/mL (≈ 1880 µM); in the assay on Saccharomyces cerevisiae, 750 µg/mL (≈ 2020 µM); in the assay on Aspergillus niger, 650 µg/mL (≈ 1750 µM).
For `CCOC(=O)Cn1c(C(F)(F)C(F)(F)F)nc2ccc([N+](=O)[O-])cc21`, the Activity result in the assay on Escherichia coli, in the assay with Bacillus subtilis, with Staphylococcus aureus and with Pseudomonas aeruginosa was “Dose-dependent effect” in each case. The MIC was determined as 800 µg/mL (≈ 2180 µM) in the assay on Staphylococcus aureus, 900 µg/mL (≈ 2450 µM) in the assay with Candida albicans, 900 µg/mL (≈ 2450 µM) against Saccharomyces cerevisiae and 800 µg/mL (≈ 2180 µM) with Aspergillus niger.
Regarding `O=[N+]([O-])c1ccc2nc(C(F)(F)C(F)(F)F)n(CCCCCl)c2c1`, the minimal inhibitory concentration (MIC) against Rhizopus arrhizus came to 800 µg/mL (≈ 2150 µM); in the assay on Candida albicans, 800 µg/mL (≈ 2150 µM); against Saccharomyces cerevisiae, 750 µg/mL (≈ 2020 µM); against Aspergillus niger, 700 µg/mL (≈ 1880 µM).
As for `O=[N+]([O-])c1ccc2c(c1)nc(C(F)(F)F)n2CCCCCl`, the minimal inhibitory concentration (MIC) stood at 500 µg/mL (≈ 1550 µM) against Rhizopus arrhizus; 600 µg/mL (≈ 1870 µM) against Escherichia coli; 750 µg/mL (≈ 2330 µM) with Bacillus subtilis; 800 µg/mL (≈ 2490 µM) against Staphylococcus aureus; 500 µg/mL (≈ 1550 µM) with Candida albicans; 800 µg/mL (≈ 2490 µM) with Saccharomyces cerevisiae. Also, the MIC worked out at 800 µg/mL (≈ 2490 µM) in the assay with Pseudomonas aeruginosa and 450 µg/mL (≈ 1400 µM) against Aspergillus niger. For the same compound, the Activity result with Escherichia coli, in the assay with Bacillus subtilis, in the assay with Staphylococcus aureus and in the assay with Pseudomonas aeruginosa was “Dose-dependent effect” throughout.
For `CCn1c(C(F)(F)F)nc2cc([N+](=O)[O-])ccc21`, the minimal inhibitory concentration (MIC) was 700 µg/mL (≈ 2700 µM) against Rhizopus arrhizus, 700 µg/mL (≈ 2700 µM) against Candida albicans, 850 µg/mL (≈ 3280 µM) against Saccharomyces cerevisiae and 750 µg/mL (≈ 2890 µM) in the assay with Aspergillus niger.
